How the values were obtained:
[1] = test system: yellow nutsedge; test: Test C pre-/postemergence herbicide test; format: in vivo, Cyperus esculentus; details: for Nutsedge, Yellow plant response rating: 500 g ai/ha
Procedure, shortened: (§1)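 Pre- and postemergence application, solvent/surfactant formulation; post at 1- to 4-leaf stage (2–18 cm). Greenhouse 12–14 d. Visual rating vs controls, 0 = no effect, 100 = complete control.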

[2] = test system: smallflower umbrella sedge; test: Test C flooded paddy test; format: in vivo, Cyperus difformis; details: for Plant response rating, Sedge, Umbrella: 500 g ai/ha, visual rating after 12 to 14 days
[3] = test system: lambsquarters; test: Test C pre-/postemergence herbicide test; format: in vivo, Chenopodium album; details: for Lambsquarters plant response rating: 500 g ai/ha
Procedure, shortened: as §1

[4] = test system: velvetleaf; test: Test A pre-/postemergence herbicide test; format: in vivo, Abutilon theophrasti
Procedure, shortened: (§2)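 Visual injury rating on a 0–100 scale (0 no effect, 100 complete control) versus untreated controls, about ten days after treatment in greenhouse. Pre: directed soil spray onto seeded sandy loam. Post: spray to runoff on plants 2–10 cm tall at one- to two-leaf stage.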

[5] = test system: morningglory; test: Test A pre-/postemergence herbicide test; format: in vivo, Ipomoea spp.
Procedure, shortened: as §2

[6] = test system: corn; test: Test C pre-/postemergence herbicide test; format: in vivo, Zea mays; details: for Corn plant response rating: 500 g ai/ha
Procedure, shortened: as §1

[7] = test system: common (oilseed) sunflower; test: Test C pre-/postemergence herbicide test; format: in vivo, Helianthus annuus; details: for Plant response rating (0 = no effect, 100 = complete control), Sunflower: 62 g ai/ha; for Sunflower plant response rating: Preemergence, 500 g ai/ha, scale 0 to 100, 0 no effect, 100 complete control
Procedure, shortened: as §1

[8] = test system: rice; test: Test C flooded paddy test; format: in vivo, Oryza sativa; details: for Plant response rating, Rice: 500 g ai/ha, visual rating after 12 to 14 days
Procedure, shortened: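 Plants were grown to the 1- to 4-leaf stage (2–18 cm) and then treated postemergence, or grown to the 2-leaf stage for the flooded paddy test. They were held in a greenhouse for 12 to 14 days and then scored by eye against controls, where 0 is no effect and 100 is complete control.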

[9] = test system: ducksalad; test: Test C flooded paddy test; format: in vivo, Heteranthera limosa; details: for Plant response rating, Ducksalad: 500 g ai/ha, visual rating after 12 to 14 days
[10] = test system: giant foxtail; test: Test C pre-/postemergence herbicide test; format: in vivo, Setaria faberi; details: for Foxtail, Giant plant response rating: 500 g ai/ha
Procedure, shortened: as §1

[11] = test system: morningglory; test: Test C pre-/postemergence herbicide test; format: in vivo, Ipomoea coccinea; design: key to Plant response rating, Morningglory: 0 = no effect, 100 = complete control; details: for Morningglory plant response rating: 500 g ai/ha
Procedure, shortened: as §1

[12] = test system: woolly cupgrass; test: Test C pre-/postemergence herbicide test; format: in vivo, Eriochloa villosa; details: for Cupgrass, Woolly plant response rating: 500 g ai/ha
Procedure, shortened: as §1

[13] = test system: Surinam grass; test: Test C pre-/postemergence herbicide test; format: in vivo, Urochloa decumbens; details: for Surinam Grass plant response rating: 500 g ai/ha
Procedure, shortened: as §1

[14] = 125 g ai/ha, scale 0 (no effect) to 100 (complete control), visual, 12 to 14 days, preemergence
[15] = Postemergence, 250 g ai/ha, scale 0 to 100, 0 no effect, 100 complete control
[16] = Preemergence, scale 0 to 100, 0 no effect, 100 complete control
[17] = postemergence, 125 g ai/ha, scale 0 to 100
[18] = postemergence, 62 g ai/ha, scale 0 to 100
[19] = 62 g ai/ha, scale 0 to 100 (0 no effect, 100 complete control)
[20] = 125 g ai/ha, scale of 0 to 100, 0 is no effect, 100 is complete control
[21] = 250 g ai/ha, scale of 0 to 100, 0 is no effect, 100 is complete control
[22] = scale 0 to 100 (0 no effect, 100 complete control)
[23] = Postemergence, 500 g ai/ha, 0 to 100 scale, 0 no effect, 100 complete control
[24] = Postemergence, 2000 g ai/ha, 0 to 100 scale, 0 no effect, 100 complete control
[25] = Preemergence, 500 g ai/ha, visual rating, 0 to 100 scale (0 no effect, 100 complete control)
[26] = Preemergence, 2000 g ai/ha, visual rating, 0 to 100 scale (0 no effect, 100 complete control)
[27] = 250 g ai/ha, scale 0 to 100 (0 no effect, 100 complete control), visual, 12 to 14 days, preemergence

CC(=NO)c1cccc(NC(=O)c2cc(C(C)(C)C)nn2CCF)c1 [Compound 115]
70: Morningglory plant response rating [5, 25] | Cupgrass, Woolly plant response rating ([12]; Postemergence, scale 0 to 100) | Plant response rating, Cupgrass, Woolly [12, 15] | Plant response rating, Cupgrass, Woolly [12, 17]
60: Plant response rating, Foxtail, Giant [10, 15] | Surinam Grass plant response rating ([13]; Postemergence, scale 0 to 100) | Plant response rating, Surinam Grass [13, 15]
40: Velvetleaf plant response rating [4, 23] | Plant response rating, Velvetleaf [4, 24] | Corn plant response rating ([6]; Postemergence, scale 0 to 100) | Plant response rating, Corn [6, 17] | Plant response rating, Corn [6, 18] | Plant response rating (0 = no effect, 100 = complete control), Foxtail, Giant ([10]; 62 g ai/ha, preemergence) | Plant response rating, Foxtail, Giant [10, 17] | Plant response rating, Foxtail, Giant [10, 18] | Plant response rating, Surinam Grass [13, 14] | Plant response rating, Surinam Grass [13, 17]
55: Rice plant response rating [8, 19]
85: Sedge, Umbrella plant response rating [2, 20] | Velvetleaf plant response rating [4, 25] | Ducksalad plant response rating [9, 21]
35: Morningglory plant response rating [5, 23]
0: Plant response rating (0 = no effect, 100 = complete control), Nutsedge, Yellow ([1]; 62 g ai/ha, preemergence) | Plant response rating, Nutsedge, Yellow [1, 14] | Plant response rating, Nutsedge, Yellow [1, 18] | Plant response rating (0 = no effect, 100 = complete control), Sunflower ([7]; preemergence)
65: Rice plant response rating [8, 20]
80: Sedge, Umbrella plant response rating [2, 19] | Foxtail, Giant plant response rating ([10]; Postemergence, scale 0 to 100) | Morningglory plant response rating [11, 16] | Plant response rating, Morningglory [11, 17] | Plant response rating, Cupgrass, Woolly [12, 27]
10: Plant response rating, Nutsedge, Yellow [1, 17] | Plant response rating (0 = no effect, 100 = complete control), Corn ([6]; 62 g ai/ha, preemergence) | Plant response rating, Corn [6, 14] | Sunflower plant response rating [7]
75: Rice plant response rating [8, 21] | Plant response rating, Rice [8, 22] | Ducksalad plant response rating [9, 20]
30: Nutsedge, Yellow plant response rating ([1]; Postemergence, scale 0 to 100) | Plant response rating, Nutsedge, Yellow [1, 15] | Plant response rating, Morningglory [5, 24] | Corn plant response rating [6, 16] | Ducksalad plant response rating [9, 19] | Plant response rating, Morningglory [11, 14] | Plant response rating, Cupgrass, Woolly [12, 14] | Plant response rating, Surinam Grass [13, 18]
90: Sedge, Umbrella plant response rating [2, 21] | Morningglory plant response rating [5, 26] | Plant response rating, Ducksalad [9, 22] | Plant response rating, Foxtail, Giant [10, 14] | Cupgrass, Woolly plant response rating [12, 16] | Surinam Grass plant response rating [13, 16]
50: Plant response rating, Morningglory [11, 18] | Plant response rating, Cupgrass, Woolly [12, 18]
95: Plant response rating, Sedge, Umbrella [2, 22] | Velvetleaf plant response rating [4, 26]
20: Nutsedge, Yellow plant response rating [1, 16] | Plant response rating, Corn [6, 27] | Plant response rating (0 = no effect, 100 = complete control), Cupgrass, Woolly ([12]; 62 g ai/ha, preemergence) | Plant response rating (0 = no effect, 100 = complete control), Surinam Grass ([13]; 62 g ai/ha, preemergence)
100: Plant response rating (0 = no effect, 100 = complete control), Lambsquarters ([3]; 62 g ai/ha, preemergence) | Plant response rating, Lambsquarters [3, 14] | Lambsquarters plant response rating ([3]; Postemergence, scale 0 to 100) | Plant response rating, Lambsquarters [3, 15] | Lambsquarters plant response rating [3, 16] | Plant response rating, Lambsquarters [3, 17] | Plant response rating, Lambsquarters [3, 18] | Plant response rating, Foxtail, Giant [10, 27] | Foxtail, Giant plant response rating [10, 16] | Morningglory plant response rating ([11]; Postemergence, scale 0 to 100)

CCn1nc(C(C)(C)C)cc1C(=O)Nc1cccc2c1CCN(C1CC1)C2=O [Compound 64]
40: Plant response rating, Ducksalad [9, 22]
80: Foxtail, Giant plant response rating [10, 16]
15: Plant response rating, Rice [8, 22]
90: Lambsquarters plant response rating [3, 16]
75: Plant response rating, Sedge, Umbrella [2, 22]
10: Velvetleaf plant response rating [4, 25] | Plant response rating, Morningglory [5, 23] | Plant response rating, Morningglory [5, 24] | Ducksalad plant response rating [9, 20] | Plant response rating, Foxtail, Giant [10, 27] | Cupgrass, Woolly plant response rating [12, 16]
50: Surinam Grass plant response rating [13, 16]
5: Morningglory plant response rating ([5]; Preemergence, 2000 g ai/ha, 0 to 100 scale, 0 no effect, 100 complete control) | Plant response rating, Surinam Grass [13, 14]
25: Sedge, Umbrella plant response rating [2, 20] | Ducksalad plant response rating [9, 21]
0: Plant response rating (0 = no effect, 100 = complete control), Nutsedge, Yellow ([1]; 62 g ai/ha, preemergence) | Plant response rating, Nutsedge, Yellow [1, 14] | Nutsedge, Yellow plant response rating [1, 16] | Sedge, Umbrella plant response rating [2, 19] | Plant response rating (0 = no effect, 100 = complete control), Lambsquarters ([3]; 62 g ai/ha, preemergence) | Plant response rating, Lambsquarters [3, 14] | Morningglory plant response rating [5, 25] | Plant response rating (0 = no effect, 100 = complete control), Corn ([6]; 62 g ai/ha, preemergence) | Plant response rating, Corn [6, 14] | Plant response rating, Corn [6, 27] | Plant response rating (0 = no effect, 100 = complete control), Sunflower ([7]; preemergence) | Plant response rating, Sunflower [7, 14] | Sunflower plant response rating [7] | Rice plant response rating [8, 19] | Rice plant response rating [8, 20] | Rice plant response rating [8, 21] | Ducksalad plant response rating [9, 19] | Plant response rating (0 = no effect, 100 = complete control), Foxtail, Giant ([10]; 62 g ai/ha, preemergence) | Plant response rating, Foxtail, Giant [10, 14] | Plant response rating (0 = no effect, 100 = complete control), Morningglory ([11]; 62 g ai/ha, preemergence) | Plant response rating, Morningglory [11, 14] | Morningglory plant response rating [11, 16] | Plant response rating (0 = no effect, 100 = complete control), Cupgrass, Woolly ([12]; 62 g ai/ha, preemergence) | Plant response rating, Cupgrass, Woolly [12, 14] | Plant response rating, Cupgrass, Woolly [12, 27] | Plant response rating (0 = no effect, 100 = complete control), Surinam Grass ([13]; 62 g ai/ha, preemergence)
35: Sedge, Umbrella plant response rating [2, 21] | Velvetleaf plant response rating [4, 26]
30: Plant response rating, Velvetleaf [4, 24] | Corn plant response rating [6, 16]
